Data: patent publication US20230391748A1, “BICYCLIC INHIBITORS OF IRAK” (priority 2022, published 2023)

Key:
[1] = test system: TNF-α in Human Primary Monocyte-Derived Dendritic Cells; assay: Gardiquimod-Induced TNF-α in Human Primary Monocyte-Derived Dendritic Cells; type: cell-based; details: Dendritic cell, IFNγ-primed monocyte-derived dendritic cells, 4 μg/ml Gardiquimod, 6 hours, TNF-α ELISA, read-out: TNFα (DC, GARD) (IC50)
How it was run: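 Monocytes differentiated 7 days with GM-CSF and IL-4, then primed 24 h with 50 ng/ml IFN-γ. Compound added 1 h before 6 h stimulation with 4 μg/ml Gardiquimod, 0.5% DMSO final. Supernatant TNF-α measured by chemiluminescent ELISA; EC50 from curve fitting.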

IL23p19 in THP-1 Cells = assay: LPS Induced IL23p19 in THP-1 Cells (with IFNγ Primed) Assay; type: cell-based; details: Homo sapiens, THP-1, 18 h, read-out: IL23 (THP, LPS) (IC50, μM)
How it was run: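 THP-1 cells (50K/well) primed with IFNγ (50 ng/mL) about 18 h, then given compound and stimulated with LPS for 18 h at 37 °C. Secreted IL-23p19 measured by sandwich ELISA with chemiluminescent read-out, giving EC50. Cell Titer Glo used on the remaining cells for toxicity.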

TNF-α in human PBMCs = assay: R848-induced TNF-α in human PBMCs Assay; type: cell-based; details: Homo sapiens, PBMC, 4 h, read-out: TNFα (PBMC, R848) (IC50, μM)
How it was run: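 Human PBMCs at 200K/well were pretreated with compound, then R848-stimulated for 4 h at 37 °C, 5% CO2. Supernatant TNF-α quantified by chemiluminescent ELISA; EC50 from curve fitting.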

IRAK4 = IRAK4 (Homo sapiens (Human), UniProt Q9NWZ3); assay: IRAK4 ADP-Glo Assay; type: biochemical; details: MBP substrate
IRAK4, sequence (Q9NWZ3 whole entry): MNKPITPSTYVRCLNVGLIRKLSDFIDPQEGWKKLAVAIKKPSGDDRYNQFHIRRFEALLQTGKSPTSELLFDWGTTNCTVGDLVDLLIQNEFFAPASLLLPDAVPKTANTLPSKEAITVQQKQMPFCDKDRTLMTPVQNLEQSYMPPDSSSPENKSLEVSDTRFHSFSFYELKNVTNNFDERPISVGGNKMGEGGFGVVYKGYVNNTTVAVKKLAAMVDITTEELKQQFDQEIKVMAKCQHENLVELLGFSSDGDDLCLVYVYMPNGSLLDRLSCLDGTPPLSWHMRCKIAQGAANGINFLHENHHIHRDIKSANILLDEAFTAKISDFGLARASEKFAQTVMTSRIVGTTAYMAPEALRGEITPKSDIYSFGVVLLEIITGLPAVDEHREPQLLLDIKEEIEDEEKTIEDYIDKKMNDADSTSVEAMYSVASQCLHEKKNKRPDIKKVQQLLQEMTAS
How it was run: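 Human IRAK4 kinase reaction with MBP substrate plus ATP in Tris-HCl/MgCl2/BSA/DTT buffer, pH 7.4, run 60 min at room temperature or 30 min at 30 °C. ADP formed was measured by ADP-Glo luminescence after ATP depletion (40 min) and detection reagent (30 min).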

SMILES	IC50 [1] [µM]	IC50 (IL23p19 in THP-1 Cells) [µM]	IC50 (TNF-α in human PBMCs) [µM]	IC50 (IRAK4) [µM]
CC(C)Oc1cc2c(OC[C@@H]3CCC(=O)N3)ncc(-c3cnn(CCC4CCOCC4)c3)c2cc1C(N)=O [Compound I-37, (S)-7-isopropoxy-1-((5-oxopyrrolidin-2-yl)methoxy)-4-(1-(2-(tetrahydro-2H-pyran-4-yl)ethyl)-1H-pyrazol-4-yl)isoquinoline-6-carboxamide]	0.296	1.34	0.324	0.0137
CC(C)Oc1cc2c(OC[C@@H]3CCC(=O)N3)ncc(-c3cnn(CCN4CCOCC4)c3)c2cc1C(N)=O [Compound I-38, (S)-7-isopropoxy-4-(1-(2-morpholinoethyl)-1H-pyrazol-4-yl)-1-((5-oxopyrrolidin-2-yl)methoxy)isoquinoline-6-carboxamide]	4.03	3.41	1.49	0.021
CCO[C@H]1CC[C@H](n2cc(-c3cnc(OC[C@@H]4CCC(=O)N4)c4cc(OC(C)C)c(C(N)=O)cc34)cn2)CC1 [Compound I-39, 4-(1-(trans-4-ethoxycyclohexyl)-1H-pyrazol-4-yl)-7-isopropoxy-1-(((S)-5-oxopyrrolidin-2-yl)methoxy)isoquinoline-6-carboxamide]	3.52	0.775	0.693	0.0333
CC(C)Oc1cc2c(OC[C@@H]3CCC(=O)N3)ncc(-c3cnn([C@H]4CC[C@](C)(O)CC4)c3)c2cc1C(N)=O [Compound I-40, 4-(1-((1r,4S)-4-hydroxy-4-methylcyclohexyl)-1H-pyrazol-4-yl)-7-isopropoxy-1-(((S)-5-oxopyrrolidin-2-yl)methoxy)isoquinoline-6-carboxamide]	2.42	0.817	0.188	0.0171
CC(C)Oc1cc2c(OC[C@@H]3CCC(=O)N3)ncc(-c3cnn([C@H]4CC[C@@](C)(O)CC4)c3)c2cc1C(N)=O [Compound I-41, 4-(1-((1s,4R)-4-hydroxy-4-methylcyclohexyl)-1H-pyrazol-4-yl)-7-isopropoxy-1-(((S)-5-oxopyrrolidin-2-yl)methoxy)isoquinoline-6-carboxamide]	10	4.61	0.509	0.0376
CCO[C@H]1C[C@@H](n2cc(-c3cnc(OC[C@@H]4CCC(=O)N4)c4cc(OC(C)C)c(C(N)=O)cc34)cn2)C1 [Compound I-42, 4-(1-(cis-3-ethoxycyclobutyl)-1H-pyrazol-4-yl)-7-isopropoxy-1-(((S)-5-oxopyrrolidin-2-yl)methoxy)isoquinoline-6-carboxamide]	0.135	0.72	0.241	0.0064
CC(C)Oc1cc2c(OC[C@@H]3CCC(=O)N3)ncc(-c3cnn([C@H]4C[C@@H](N(C)C)C4)c3)c2cc1C(N)=O [Compound I-43, 4-(1-(cis-3-(dimethylamino)cyclobutyl)-1H-pyrazol-4-yl)-7-isopropoxy-1-(((S)-5-oxopyrrolidin-2-yl)methoxy)isoquinoline-6-carboxamide]	0.355	3.1	0.701	0.005
CC(C)Oc1cc2c(OC[C@@H]3CCC(=O)N3)ncc(-c3cnn(C4CCN(C(=O)OC(C)(C)C)CC4)c3)c2cc1C(N)=O [Compound I-44, tert-butyl (S)-4-(4-(6-carbamoyl-7-isopropoxy-1-((5-oxopyrrolidin-2-yl)methoxy)isoquinolin-4-yl)-1H-pyrazol-1-yl)piperidine-1-carboxylate]	1.05	0.937	0.727	0.0209
CC(C)Oc1cc2c(OC[C@@H]3CCC(=O)N3)ncc(-c3cnn(C4CCNCC4)c3)c2cc1C(N)=O [Compound I-45, (S)-7-isopropoxy-1-((5-oxopyrrolidin-2-yl)methoxy)-4-(1-(piperidin-4-yl)-1H-pyrazol-4-yl)isoquinoline-6-carboxamide]	1.36	10.9	10	0.0186
CC(C)Oc1cc2c(OC[C@@H]3CCC(=O)N3)ncc(-c3cnn(C4CCN(C)CC4)c3)c2cc1C(N)=O [Compound I-46, (S)-7-isopropoxy-4-(1-(1-methylpiperidin-4-yl)-1H-pyrazol-4-yl)-1-((5-oxopyrrolidin-2-yl)methoxy)isoquinoline-6-carboxamide]	0.466	5.42	1.25	0.0156
CC(C)Oc1cc2c(OC[C@@H]3CCC(=O)N3)ncc(-c3cn[nH]c3)c2cc1C(N)=O [Compound I-47, (S)-7-isopropoxy-1-((5-oxopyrrolidin-2-yl)methoxy)-4-(1H-pyrazol-4-yl)isoquinoline-6-carboxamide]	1.87	2.73	0.816	0.0076
CC(C)Oc1cc2c(OC[C@@H]3CC(F)(F)C(=O)N3)ncc(C#CC3(O)CCCC3)c2cc1C(N)=O [Compound I-48, (S)-1-((4,4-difluoro-5-oxopyrrolidin-2-yl)methoxy)-4-((1-hydroxycyclopentyl)ethynyl)-7-isopropoxyisoquinoline-6-carboxamide]	0.12	0.165	0.0569	0.0044
CC(C)Oc1cc2c(OC[C@@H]3CC(F)(F)C(=O)N3)ncc(C#CC3CCOCC3)c2cc1C(N)=O [Compound I-49, (S)-1-((4,4-difluoro-5-oxopyrrolidin-2-yl)methoxy)-7-isopropoxy-4-((tetrahydro-2H-pyran-4-yl)ethynyl)isoquinoline-6-carboxamide]	0.0737	0.273	0.0853	0.0076
CC(C)Oc1cc2c(OC[C@@H]3CC(F)(F)C(=O)N3)ncc(C#CCC3CCOCC3)c2cc1C(N)=O [Compound I-50, (S)-1-((4,4-difluoro-5-oxopyrrolidin-2-yl)methoxy)-7-isopropoxy-4-(3-(tetrahydro-2H-pyran-4-yl)prop-1-yn-1-yl)isoquinoline-6-carboxamide]	0.23	1.62	0.115	0.0048
CC(C)Oc1cc2c(OC[C@@H]3CC(F)(F)C(=O)N3)ncc(C#CC3(O)CCOCC3)c2cc1C(N)=O [Compound I-51, (S)-1-((4,4-difluoro-5-oxopyrrolidin-2-yl)methoxy)-4-((4-hydroxytetrahydro-2H-pyran-4-yl)ethynyl)-7-isopropoxyisoquinoline-6-carboxamide]	1.03	1.27	0.391	0.0053
CC(C)Oc1cc2c(OC[C@@H]3CC(F)(F)C(=O)N3)ncc(C#CC3(O)CCNCC3)c2cc1C(N)=O [Compound I-53, (S)-1-((4,4-difluoro-5-oxopyrrolidin-2-yl)methoxy)-4-((4-hydroxypiperidin-4-yl)ethynyl)-7-isopropoxyisoquinoline-6-carboxamide]	14.2	11	3.06	0.0063
CC(C)Oc1cc2c(OC[C@@H]3CC(F)(F)C(=O)N3)ncc(C#CC3CCN(C(=O)OC(C)(C)C)CC3)c2cc1C(N)=O [Compound I-54, tert-butyl (S)-4-((6-carbamoyl-1-((4,4-difluoro-5-oxopyrrolidin-2-yl)methoxy)-7-isopropoxyisoquinolin-4-yl)ethynyl)piperidine-1-carboxylate]	1.71	2.97	2.75	0.113
CC(C)Oc1cc2c(OC[C@@H]3CC(F)(F)C(=O)N3)ncc(C#CC3CCNCC3)c2cc1C(N)=O [Compound I-55, (S)-1-((4,4-difluoro-5-oxopyrrolidin-2-yl)methoxy)-7-isopropoxy-4-(piperidin-4-ylethynyl)isoquinoline-6-carboxamide]	1.22	4	1.2	0.0035
CC(C)Oc1cc2c(OC[C@@H]3CC(F)(F)C(=O)N3)ncc(C#CC3CCN(C)CC3)c2cc1C(N)=O [Compound I-56, (S)-1-((4,4-difluoro-5-oxopyrrolidin-2-yl)methoxy)-7-isopropoxy-4-((1-methylpiperidin-4-yl)ethynyl)isoquinoline-6-carboxamide]	0.0249	0.422	0.136	0.0033
CC(C)Oc1cc2c(OC[C@@H]3CC(F)(F)C(=O)N3)ncc(C#CC3(O)CCN(C)CC3)c2cc1C(N)=O [Compound I-57, (S)-1-((4,4-difluoro-5-oxopyrrolidin-2-yl)methoxy)-4-((4-hydroxy-1-methylpiperidin-4-yl)ethynyl)-7-isopropoxyisoquinoline-6-carboxamide]	0.634	7.39	0.468	0.0045
CCO[C@H]1CC[C@H](C#Cc2cnc(OC[C@@H]3CC(F)(F)C(=O)N3)c3cc(OC(C)C)c(C(N)=O)cc23)CC1 [Compound I-58, 1-(((S)-4,4-difluoro-5-oxopyrrolidin-2-yl)methoxy)-4-(((1r,4S)-4-ethoxycyclohexyl)ethynyl)-7-isopropoxyisoquinoline-6-carboxamide]	0.0225	2960	1.56	0.729
